Test results reported in article PMC8658963, “Synthesis and Evaluation of Trypanocidal Activity of Chromane-Type Compounds and Acetophenones” (Molecules, 2021).
Where two headings read alike, the source gives them in different places.

Legend:
in vitro = conditions: human, Cytotoxicity (LC50)
Method: (§1) Cytotoxicity was evaluated in the human monocyte cell line U-937 (ATCC CRL-1593.2) at the exponential growth phase, adjusted at 1 × 10^5 cells/mL in complete RPMI-1640 medium (RPMI-1640 enriched with 200 mM L-glutamine, 10% inactivated fetal bovine serum (FBS) and 1% of a mixture of 10,000 IU/mL penicillin plus […] streptomycin). Then, in each well of a 96-well tissue culture plate were dispensed […] of cells plus […] of each compound (as one of six serials 1:2 dilution concentrations starting at 368 µM prepared in the same medium). Doxorubicin was included as an internal positive control under the same dilution pattern, starting at 18 µM whereas unexposed cells were used as negative controls. Afterward, cells were incubated for 72 h at 37 °C and 5% CO2. Cell viability was assayed by the MTT reduction assay according to the optical density (O.D) at 570 nm of the resulting reduction of formazan in a Varioskan Flash Multimode Reader (Thermo Scientific, Waltham, MA, USA). Nonspecific absorbance was corrected by subtracting the O.D of the blank solution that corresponded to complete RPMI-1640 medium. The assay was done in triplicate in at least two independent experiments.
(§2) The cytotoxicity was expressed as the medial lethal concentration (LC50), while the trypanocidal activity was defined as the median effective concentration (EC50) according to the percentage of inhibition of cells and parasites, respectively, as described elsewhere. Both LC50 and EC50 were calculated by the Probit analysis. […] Similarly, the trypanocidal activity was graded according to EC50 values, based on the hit criteria proposed by others into high when EC50 was lower than 10 μM, moderate when EC50 values were higher than 10 μM but lower than 50 μM and, low when EC50 was higher than 50 μM. The relation between cytotoxicity and trypanocidal activity was expressed as the index of selectivity (IS) that corresponded to the ratio when dividing the LC50 by the EC50.

[1] = system: intracellular amastigotes of T. cruzi (Tulahuen strain transfected with the β-galactosidase gene); test: Anti-trypanosomal activity, β-galactosidase readout in infected U937 macrophages, 72 h; assay type: cell-based, Trypanosoma cruzi; conditions: for SI (index of selectivity, IS = LC50/EC50): LC50 in U937 cells divided by EC50 against T. cruzi; for Trypanocidal activity compared with the control drug BNZ / Trypanocidal activity (grade): T. cruzi intracellular amastigotes; for Trypanocidal activity compared with the control drug BNZ: result in words
Method: This activity was carried out in intracellular amastigotes of T. cruzi (Tulahuen strain transfected with the β-galactosidase gene. Briefly, metacyclic trypomastigotes were cultured at 26 °C for ten days in a modified NNN (Novy−McNeal−Nicolle) medium. U937 cells were seeded in 96-well tissue culture plates at a density of 2.5 × 10^4 cells in 100 μL of complete RPMI-1640 medium/well and exposed for 24 h to phorbol myristate acetate (1 ng/mL) to induce transformation of monocytes into macrophages. Cells were infected with trypomastigotes (5 parasites per cell) and incubated for 24 h at 37 °C, 5% CO2. Wells were washed twice with warm phosphate buffer solution (PBS) to remove noninternalized parasites, and then were added 100 μL of complete RPMI-1640 medium and 100 μL of each concentration of compound (50, 12.5, 3.125 μM). BNZ, at the same concentrations, was used as internal control for trypanocidal activity (positive control), and nontreated cells as controls for infection (negative control). After 72 h of incubation 37 °C, 5% CO2, the viability of intracellular amastigotes was determined by measuring the β-galactosidase activity. For this, 100 μM of Chlorophenol red-β-D- galactopyranoside (CPRG), and 0.1% Nonidet P-40 was added to each well and incubated for 4 h at 37 °C, […] protected from light. After that, measurement β-galactosidase activity was measured at 570 nm on a Varioskan, Thermo spectrophotometer. Nonspecific absorbance was subtracted from the measurement. Infected cells exposed to benznidazole were used as controls for anti-trypanosomal activity. Determinations were done in triplicate with at least two independent experiments.

[2] = system: human monocyte cell line U-937 (ATCC CRL-1593.2); test: in vitro; conditions: for Cytotoxicity level (grade): U937 cells, graded by LC50
Method: as §1, §2

[3] = Trypanosoma cruzi, TULAHUEN, U-937, 72 h, read-out: Trypanocidal Activity (EC50), intracellular amastigotes of T. cruzi Tulahuen in U937 macrophages, 72 h, average ± SD (SEM)
[4] = Trypanosoma cruzi, TULAHUEN, U-937, 72 h, intracellular amastigotes of T. cruzi Tulahuen in U937 macrophages, 72 h, average ± SD (SEM), read-out: Trypanocidal Activity (EC50)
[5] = Trypanosoma cruzi, TULAHUEN, U-937, read-out: Trypanocidal activity (grade), T. cruzi intracellular amastigotes, graded by EC50
[6] = read-out: Trypanocidal Activity (EC50), intracellular amastigotes of T. cruzi Tulahuen in U937 macrophages, 72 h, average ± SD (SEM)
[7] = Trypanosoma cruzi, TULAHUEN, U-937, T. cruzi intracellular amastigotes, graded by EC50, read-out: Trypanocidal activity (grade)

SMILES | CC50 at 72 h (in vitro) | SI (index of selectivity, IS = LC50/EC50) [1] | Trypanocidal activity compared with the control drug BNZ [1] | EC50 [1, 3] | EC50 [1, 4] | also measured
COCOc1cc2oc(-c3ccc(Cl)cc3)cc(=O)c2cc1CC=C(C)C [Compound 30, 2-(4-Chlorophenyl)-7-(methoxymethoxy)-6-(3-methylbut-2-en-1-yl)-4H-chromen-4-one] | 27.2 ± 3.3 µM | <2 | much better trypanocidal activity than the control drug BNZ | > 13.6 µM | – | –
O=c1ccoc2cc(O)ccc12 [Compound 10, 7-Hydroxy-4H-chromen-4-one] | 23.4 ± 6.4 µM | <2 | – | – | > 11.7 µM | –
CC(C)=CCc1c(O)ccc2c(=O)ccoc12 [Compound 24, 7-Hydroxy-8-(3-methylbut-2-en-1-yl)-4H-chromen-4-one] | > 100 µM | >0.9 | – | 111 ± 18.5 µM | – | Trypanocidal activity (grade) ([1]; graded by EC50): very low
COCOc1cc2oc(-c3ccc(OC)cc3)cc(=O)c2cc1CC=C(C)C [Compound 29, 7-(Methoxymethoxy)-2-(4-methoxyphenyl)-6-(3-methylbut-2-en-1-yl)-4H-chromen-4-one] | 17 ± 0.2 µM | <2 | much better trypanocidal activity than the control drug BNZ | > 9.8 µM | – | –
CC(C)=CCc1ccc2occc(=O)c2c1O [Compound 25, 5-Hydroxy-6-(3-methylbut-2-en-1-yl)-4H-chromen-4-one] | – | >5.8 | much better trypanocidal activity than the control drug BNZ | 17.3 ± 0.4 µM | – | Cytotoxicity (LC50) ([2]; human, 72 h): 47.1 ± 5.5 µM; EC50 [1, 5]: 10 to 50 µM
CC(C)=CCc1cc2c(=O)ccoc2cc1O [Compound 23, 7-Hydroxy-6-(3-methylbut-2-en-1-yl)-4H-chromen-4-one] | > 200 µM | >10 | – | > 20 µM | – | –
CC(=O)c1c(O)cc(O)c(CC=C(C)C)c1O [Compound 17, 1-(2,4,6-Trihydroxy-3-(3-methylbut-2-en-1-yl)phenyl)ethan-1-one] | 21.2 ± 6.9 µM | 2.8 | – | < 10 µM | – | EC50 [1, 6]: 7.5 µM
CC(=O)c1ccc(O)c(CC=C(C)C)c1O [Compound 15, 1-(2,4-Dihydroxy-3-(3-methylbut-2-en-1-yl)phenyl)ethan-1-one] | 25.2 ± 4.6 µM | 1.2 | – | 20.7 ± 1.1 µM | – | EC50 [1, 5]: 10 to 50 µM
O=c1ccoc2cccc(O)c12 [Compound 12, 5-Hydroxy-4H-chromen-4-one] | > 100 µM | >5.0 | much better trypanocidal activity than the control drug BNZ | – | 19.9 ± 1.3 µM | EC50 [1, 7]: 10 to 50 µM
CC(C)=CCc1cc2c(=O)ccoc2c(O)c1O [Compound 26, 7,8-Dihydroxy-6-(3-methylbut-2-en-1-yl)-4H-chromen-4-one] | – | 4.59 | much better trypanocidal activity than the control drug BNZ | < 10 µM | – | Cytotoxicity (LC50) ([2]; human, 72 h): >200 µM; EC50 [1, 6]: 10.3 µM
CC(=O)c1c(O)cc(O)cc1O [Compound 9, 1-(2,4,6-Trihydroxyphenyl)ethan-1-one] | > 200 µM | >4.1 | – | – | 49.3 ± 9 µM | EC50 [1, 7]: 10 to 50 µM
CC(=O)c1ccc(O)c(O)c1O [Compound 8, 1-(2,3,4-Trihydroxyphenyl)ethan-1-one] | > 200 µM | >10.9 | much better trypanocidal activity than the control drug BNZ | – | 18.3 ± 1.1 µM | EC50 [1, 7]: 10 to 50 µM
COCOc1cc(O)c(C(=O)C=Cc2ccc(OC)cc2)cc1CC=C(C)C [Compound 27, 1-(2-Hydroxy-4-(methoxymethoxy)-5-(3-methylbut-2-en-1-yl)phenyl)-3-(4-methoxyphenyl)prop-2-en-1-one] | 43.4 ± 7.3 µM | 1.2 | – | 35.3 ± 1.1 µM | – | EC50 [1, 5]: 10 to 50 µM
CC(=O)c1ccc(O)cc1O [Compound 5, 1-(2,4-Dihydroxyphenyl)ethan-1-one] | 54 ± 0.5 µM | 3.0 | – | – | 17.8 ± 0.8 µM | –
COCOc1cc(O)c(C(=O)C=Cc2ccc(Cl)cc2)cc1CC=C(C)C [Compound 28, 3-(4-Chlorophenyl)-1-(2-hydroxy-4-(methoxymethoxy)-5-(3-methylbut-2-en-1-yl)phenyl)prop-2-en-1-one] | – | <2 | much better trypanocidal activity than the control drug BNZ | > 0.3 µM | – | Cytotoxicity level (grade) [2]: high (high when LC50 values were lower than 50 μM)
CC(=O)c1cc(CC=C(C)C)c(O)cc1O [Compound 14, 1-(2,4-Dihydroxy-5-(3-methylbut-2-en-1-yl)phenyl)ethan-1-one] | 34 ± 4.9 µM | <2 | – | > 17 µM | – | –
CC(=O)c1cc(CC=C(C)C)c(O)c(O)c1O [Compound 18, 1-(2,3,4-Trihydroxy-5-(3-methylbut-2-en-1-yl)phenyl)ethan-1-one] | < 10 µM | – | – | – | – | Cytotoxicity level (grade) [2]: high (high when LC50 values were lower than 50 μM); CC50 ([2]; human, 72 h): 5 ± 1.7 µM
O=c1ccoc2ccc(O)cc12 [Compound 11, 6-Hydroxy-4H-chromen-4-one] | 28 ± 1.9 µM | 2.4 | much better trypanocidal activity than the control drug BNZ | – | 11.8 ± 0.3 µM | EC50 [1, 7]: 10 to 50 µM
O=c1ccoc2c(O)c(O)ccc12 [Compound 13, 7,8-Dihydroxy-4H-chromen-4-one] | 43 ± 0.9 µM | 0.3 | – | – | 154 ± 26.8 µM | Trypanocidal activity (grade) ([1]; graded by EC50): very low
COc1cccc2c1C(=O)c1c(O)c3c(c(O)c1C2=O)C[C@@](O)(C(=O)CO)C[C@@H]3O[C@H]1C[C@H](N)[C@H](O)[C@H](C)O1 [DOX, doxorubicin, reference compound] | 0.5 µM | – | – | – | – | –
